From ChEMBL document CHEMBL4219212, “Synthesis of 3-(3-hydroxyphenyl)pyrrolidine dopamine D3 receptor ligands with extended functionality for probing the secondary binding pocket” (Bioorg Med Chem Lett, 2018)

Target: D(2) dopamine receptor (Homo sapiens, UniProt P14416)
Experiment: Binding affinity to human dopamine D2 receptor

D(2) dopamine receptor, sequence (P14416 whole entry): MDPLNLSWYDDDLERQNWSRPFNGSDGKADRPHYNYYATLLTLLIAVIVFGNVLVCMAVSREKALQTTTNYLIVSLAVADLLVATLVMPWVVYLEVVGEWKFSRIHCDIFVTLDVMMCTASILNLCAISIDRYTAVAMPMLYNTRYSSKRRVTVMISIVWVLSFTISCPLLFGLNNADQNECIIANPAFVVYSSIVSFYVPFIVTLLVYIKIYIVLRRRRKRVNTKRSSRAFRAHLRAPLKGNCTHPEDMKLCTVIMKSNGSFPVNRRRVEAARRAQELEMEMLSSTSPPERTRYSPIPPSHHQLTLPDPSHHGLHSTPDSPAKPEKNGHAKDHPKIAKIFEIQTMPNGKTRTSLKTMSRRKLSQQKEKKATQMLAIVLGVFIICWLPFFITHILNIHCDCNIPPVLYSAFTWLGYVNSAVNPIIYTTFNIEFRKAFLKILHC

| Compound | Ki |
| --- | --- |
| CCCN1CCC(c2cccc(O)c2)C1 (stereo not drawn) | 68 nM |

Target: D(3) dopamine receptor (Homo sapiens, UniProt P35462)
Experiment: Binding affinity to human dopamine D3 receptor

D(3) dopamine receptor, sequence (P35462 whole entry): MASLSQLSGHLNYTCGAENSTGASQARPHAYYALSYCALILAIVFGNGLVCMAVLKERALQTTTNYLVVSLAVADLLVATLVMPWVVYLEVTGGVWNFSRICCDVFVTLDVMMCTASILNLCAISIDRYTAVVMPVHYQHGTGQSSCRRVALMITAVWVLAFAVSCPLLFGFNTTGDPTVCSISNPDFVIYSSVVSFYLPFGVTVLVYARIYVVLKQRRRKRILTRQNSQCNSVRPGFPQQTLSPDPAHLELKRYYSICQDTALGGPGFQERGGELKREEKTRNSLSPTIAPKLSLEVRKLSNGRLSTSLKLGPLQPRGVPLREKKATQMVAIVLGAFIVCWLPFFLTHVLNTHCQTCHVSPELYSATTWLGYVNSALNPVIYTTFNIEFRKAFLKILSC

| Compound | Ki |
| --- | --- |
| CCCN1CCC(c2cccc(O)c2)C1 (stereo not drawn) | 52 nM |

Target: D(1A) dopamine receptor (Homo sapiens, UniProt P21728)
Sequence (P21728 whole entry): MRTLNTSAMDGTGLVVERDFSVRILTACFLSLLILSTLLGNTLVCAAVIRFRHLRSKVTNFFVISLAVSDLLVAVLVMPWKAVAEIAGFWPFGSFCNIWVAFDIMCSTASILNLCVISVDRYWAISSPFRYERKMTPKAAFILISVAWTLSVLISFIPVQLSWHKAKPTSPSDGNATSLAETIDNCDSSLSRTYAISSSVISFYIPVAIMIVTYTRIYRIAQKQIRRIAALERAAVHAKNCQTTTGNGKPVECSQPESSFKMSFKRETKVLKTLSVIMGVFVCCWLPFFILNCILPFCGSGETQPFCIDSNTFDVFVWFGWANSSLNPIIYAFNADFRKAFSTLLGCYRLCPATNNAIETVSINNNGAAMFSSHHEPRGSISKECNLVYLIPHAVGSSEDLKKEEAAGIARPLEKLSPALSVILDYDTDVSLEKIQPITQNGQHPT
Experiment: Displacement of [3H]SCH23390 from human dopamine D1 receptor expressed in HEK293T cell membranes by radioligand binding assay

| Compound | Ki |
| --- | --- |
| CCCCCCCCN1CCC(c2cccc(O)c2)C1 (stereo not drawn) | 170 nM |
| CCCCN1CCC(c2cccc(O)c2)C1 (stereo not drawn) | 861 nM |
| CCCCCCCN1CCC(c2cccc(O)c2)C1 (stereo not drawn) | 597 nM |
| CCCCCCN1CCC(c2cccc(O)c2)C1 (stereo not drawn) | 1280 nM |
| CCCCCN1CCC(c2cccc(O)c2)C1 (stereo not drawn) | 542 nM |
| CCCCCCCCCCN1CCC(c2cccc(O)c2)C1 (stereo not drawn) | 128 nM |
| CCCCCCCCCN1CCC(c2cccc(O)c2)C1 (racemic) | 174 nM |
| CN(C)c1ccc(C(=O)NCCCCN2CCC(c3cccc(O)c3)C2)cc1 (racemic) | 831 nM |
| CCCCCCCCCN1CCC(c2cccc(O)c2)C1 (single isomer, unassigned; (+)) | > 10000 nM |
| CN(C)c1ccc(C(=O)NCCCCN2CCC(c3cccc(O)c3)C2)cc1 (single isomer, unassigned; (+)) | > 10000 nM |
| CCCCCCCCCN1CCC(c2cccc(O)c2)C1 (single isomer, unassigned; (-)) | 181 nM |
| CN(C)c1ccc(C(=O)NCCCCN2CCC(c3cccc(O)c3)C2)cc1 (single isomer, unassigned; (-)) | 4590 nM |

Target: T1, 5-hydroxytryptamine receptor 1A (Homo sapiens, UniProt P08908)
T1 sequence (P08908 whole entry): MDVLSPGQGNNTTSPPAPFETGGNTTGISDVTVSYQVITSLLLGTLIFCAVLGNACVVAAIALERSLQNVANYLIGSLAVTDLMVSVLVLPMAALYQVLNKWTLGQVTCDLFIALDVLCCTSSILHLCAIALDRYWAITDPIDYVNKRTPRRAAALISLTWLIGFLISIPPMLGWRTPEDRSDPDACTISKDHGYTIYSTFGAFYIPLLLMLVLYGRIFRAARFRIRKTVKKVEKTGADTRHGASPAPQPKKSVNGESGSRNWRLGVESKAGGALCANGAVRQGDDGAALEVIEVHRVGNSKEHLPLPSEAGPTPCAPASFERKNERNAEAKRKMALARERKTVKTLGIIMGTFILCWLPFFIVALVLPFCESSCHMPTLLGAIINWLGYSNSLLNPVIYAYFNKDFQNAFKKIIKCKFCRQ
Experiment: Displacement of [3H]-Way100635 from 5HT1A receptor (unknown origin) expressed in stable CHO cell membranes by radioligand binding assay

| Compound | Ki |
| --- | --- |
| CCCCCCCCN1CCC(c2cccc(O)c2)C1 (stereo not drawn) | 9.4 nM |
| CCCCN1CCC(c2cccc(O)c2)C1 (stereo not drawn) | 1810 nM |
| CCCCCCCN1CCC(c2cccc(O)c2)C1 (stereo not drawn) | 19 nM |
| CCCCCCN1CCC(c2cccc(O)c2)C1 (stereo not drawn) | 272 nM |
| CCCCCN1CCC(c2cccc(O)c2)C1 (stereo not drawn) | 326 nM |
| CCCCCCCCCCN1CCC(c2cccc(O)c2)C1 (stereo not drawn) | 12 nM |
| CCCCCCCCCN1CCC(c2cccc(O)c2)C1 (racemic) | 15 nM |
| CCCCCCCCCN1CCC(c2cccc(O)c2)C1 (single isomer, unassigned; (+)) | 115 nM |
| CCCCCCCCCN1CCC(c2cccc(O)c2)C1 (single isomer, unassigned; (-)) | 48 nM |
